From PubChem BioAssay (NCI)
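96-well plates; 48 h exposure; 5 concentrations. Endpoints by linear interpolation between flanking doses. Not reached: highest tested concentration assigned. Here, GI50 denotes the concentration required for 50% inhibition of growth. At the TGI there is no net growth.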

Columns and labels:
Assay in all cases: NCI anticancer screen, dose series, 48 h
K-562 leukemia = test system: K-562 leukemia
NCI/ADR-RES ovarian = test system: NCI/ADR-RES ovarian
RPMI-8226 leukemia = test system: RPMI-8226 leukemia
HOP-62 NSCLC = test system: HOP-62 NSCLC
UO-31 renal = test system: UO-31 renal
OVCAR-8 ovarian = test system: OVCAR-8 ovarian
A549 NSCLC = test system: A549 NSCLC
RXF 393 renal = test system: RXF 393 renal
T-47D breast = test system: T-47D breast
ACHN renal = test system: ACHN renal
NCI-H23 lung = test system: NCI-H23 lung
SW-620 colon = test system: SW-620 colon
MDA-MB-468 breast = test system: MDA-MB-468 breast
MOLT-4 leukemia = test system: MOLT-4 leukemia
M14 melanoma = test system: M14 melanoma
KM12 colon = test system: KM12 colon
UACC-62 melanoma = test system: UACC-62 melanoma
SK-MEL-5 melanoma = test system: SK-MEL-5 melanoma
HT29 colon = test system: HT29 colon
SF-295 CNS = test system: SF-295 CNS
DU-145 prostate = test system: DU-145 prostate
IGROV1 ovarian = test system: IGROV1 ovarian
SF-539 CNS = test system: SF-539 CNS
BT-549 breast = test system: BT-549 breast
LOX IMVI melanoma = test system: LOX IMVI melanoma
HS 578T breast = test system: HS 578T breast
NCI-H522 lung = test system: NCI-H522 lung
HCT-116 colon = test system: HCT-116 colon
UACC-257 melanoma = test system: UACC-257 melanoma
MCF7 breast = test system: MCF7 breast

Cc1ccc(-c2ccc(SCC(=O)Nc3ccc(S(N)(=O)=O)cc3Br)nn2)cc1
TGI (K-562 leukemia): > 100 µM | GI50 (NCI/ADR-RES ovarian): 9.62 µM | TGI (NCI/ADR-RES ovarian): > 100 µM | GI50 (RPMI-8226 leukemia): > 100 µM | TGI (RPMI-8226 leukemia): > 100 µM | GI50 (HOP-62 NSCLC): 6.99 µM | TGI (HOP-62 NSCLC): 24.2 µM | GI50 (UO-31 renal): 14.7 µM | TGI (UO-31 renal): 28.6 µM | GI50 (OVCAR-8 ovarian): 13.3 µM | TGI (OVCAR-8 ovarian): 29.6 µM | GI50 (A549 NSCLC): 15 µM | TGI (A549 NSCLC): 30.9 µM | GI50 (RXF 393 renal): 3.96 µM | TGI (RXF 393 renal): 20.5 µM | GI50 (T-47D breast): 10.6 µM | TGI (T-47D breast): 34.3 µM | GI50 (ACHN renal): 12 µM | TGI (ACHN renal): 24.4 µM | GI50 (NCI-H23 lung): 9.73 µM | TGI (NCI-H23 lung): 21.4 µM | GI50 (SW-620 colon): 27.2 µM | TGI (SW-620 colon): > 100 µM | GI50 (MDA-MB-468 breast): 15.3 µM | TGI (MDA-MB-468 breast): 36.4 µM | GI50 (MOLT-4 leukemia): > 100 µM | TGI (MOLT-4 leukemia): > 100 µM | GI50 (M14 melanoma): 30.5 µM | TGI (M14 melanoma): > 100 µM | GI50 (KM12 colon): 28.3 µM | TGI (KM12 colon): > 100 µM | GI50 (UACC-62 melanoma): 13.2 µM | TGI (UACC-62 melanoma): 26.2 µM | GI50 (SK-MEL-5 melanoma): 13.1 µM | TGI (SK-MEL-5 melanoma): 26.5 µM | GI50 (HT29 colon): 7.6 µM | TGI (HT29 colon): 68.8 µM | GI50 (SF-295 CNS): 10.5 µM | TGI (SF-295 CNS): 22.3 µM | GI50 (DU-145 prostate): 13.3 µM | TGI (DU-145 prostate): 32.1 µM | GI50 (IGROV1 ovarian): 15.9 µM | TGI (IGROV1 ovarian): 31.3 µM | GI50 (SF-539 CNS): 10.4 µM | TGI (SF-539 CNS): 22.2 µM | GI50 (BT-549 breast): 15.7 µM | TGI (BT-549 breast): 44.2 µM | GI50 (LOX IMVI melanoma): 10.4 µM | TGI (LOX IMVI melanoma): 25.5 µM | GI50 (HS 578T breast): 13.1 µM | TGI (HS 578T breast): 45.3 µM | GI50 (NCI-H522 lung): 10.9 µM | TGI (NCI-H522 lung): 25.4 µM | GI50 (HCT-116 colon): 3.67 µM | TGI (HCT-116 colon): 17.2 µM | GI50 (UACC-257 melanoma): 22.7 µM | TGI (UACC-257 melanoma): 64.9 µM | GI50 (MCF7 breast): 15.4 µM | TGI (MCF7 breast): 37.1 µM
